Data on 48 compounds can be found in paper PMC8286840, “Identifying SARS-CoV-2 antiviral compounds by screening for small molecule inhibitors of Nsp3 papain-like protease” (Biochemical Journal, 2021).

In assay [1] the target is T1, SARS-CoV-2 PLpro (nsp3 1564–1878) (Severe acute respiratory syndrome coronavirus 2, UniProt P0DTD1). Description: biochemical. Set-up: FRET-quenched peptide (Pro3) cleavage by PLpro, 10 min pre-incubation, slope over 20 min, normalised to no-compound control. The note with it: low concentration screen, read-out: % of control remaining.
Assay [2] has as its target T1, SARS-CoV-2 PLpro (nsp3 1564–1878). In words: biochemical. The note with it: high concentration screen, read-out: % of control remaining. Set-up: FRET-quenched peptide (Pro3) cleavage by PLpro, 10 min pre-incubation, slope over 20 min, normalised to no-compound control.

Where a name gives a salt, the structure may show the parent alone. Read-outs that look alike come from different tables or passages of the source.

`CN(C)c1ccc(O)c2c1C[C@H]1C[C@H]3[C@H](N(C)C)C(O)=C(C(N)=O)C(=O)[C@@]3(O)C(O)=C1C2=O`: the remaining activity at 1.25 µM in assay [1] (Well no.=3663) is 102%. For `CC(N)(C(=O)O)c1ccc(C(=O)O)cc1` (racemic), the remaining activity at 3.75 µM in assay [2] (Well no.=880) was found to be 111%. In the case of `CC(C)NCC(O)c1ccc(O)c(O)c1` (racemic), the remaining activity at 1.25 µM in assay [1] (Well no.=1107) is 97.8%. For `Oc1cc2c(cc1O)C(c1ccccc1)CNCC2` (racemic), the remaining activity at 3.75 µM in assay [2] (Well no.=542) was found to be 98.7%.

As for `CN(C)CCC(c1ccc(Cl)cc1)c1ccccn1` (racemic), the remaining activity at 1.25 µM in assay [1] (Well no.=124) is 92.9%. As to `CN1C[C@@H]2c3ccccc3Oc3ccc(Cl)cc3[C@H]2C1` (racemic) [Asenapine], the remaining activity at 3.75 µM in assay [2] (Well no.=5151) came out at 105%. For `CCC1(c2ccc(N)cc2)CCC(=O)NC1=O` (racemic) [DL-Aminoglutethimide], the remaining activity at 1.25 µM in assay [1] (Well no.=2117) came to 99.9%. Consider `O=C(CCN1CCN(C(=O)OCc2cc(Cl)cc(Cl)c2)CC1)c1ccc2[nH]c(=O)oc2c1` [3,5-dichlorobenzyl 4-[3-oxo-3-(2-oxo-2,3-dihydro-1,3-benzoxazol-6-yl)propyl]-1-piperazinecarboxylate], for which the remaining activity at 3.75 µM in assay [2] (Well no.=5605) was determined as 105%. `CC(=O)[C@H]1CC[C@H]2[C@@H]3CC[C@H]4C[C@H](O)CC[C@]4(C)[C@H]3CC[C@]12C` [5alpha-Pregnan-3alpha-ol-20-one]: the remaining activity at 1.25 µM in assay [1] (Well no.=1353) was 104%. Consider `Cc1noc(-c2ccc(-c3ccc(CC(=O)O)cc3)cc2)c1NC(=O)O[C@H](C)c1ccccc1` [AM095 (free acid)], for which the remaining activity at 3.75 µM in assay [2] (Well no.=7853) stood at 101%. `O=c1cc(-c2cccc3c2Sc2ccccc2S3)oc(N2CCOCC2)c1` [ATM Kinase Inhibitor]: in assay [2] (Well no.=2310), the remaining activity at 3.75 µM was determined as 104%.

`CCCC(=O)Nc1ccc(OCC(O)CNC(C)C)c(C(C)=O)c1` (stereo not shown) [Acebutolol HCl]: the remaining activity at 3.75 µM in assay [2] (Well no.=5074) is 103%.

For the compound `C=CCc1ccccc1OCC(O)CNC(C)C` (stereo not shown) [Alprenolol.HCl], the remaining activity at 1.25 µM in assay [1] (Well no.=1686) was found to be 103%.

For the compound `CC(NC(C)(C)C)C(=O)c1cccc(Cl)c1` (stereo not shown) [Amfebutamone], in assay [1] (Well no.=1694), the remaining activity at 1.25 µM came out at 98.7%.

With `CN1[C@@H]2CC[C@H]1C[C@@H](OC(=O)C(CO)c1ccccc1)C2` (stereo partly shown) [Atropine], in assay [1] (Well no.=1552), the remaining activity at 1.25 µM is 100%.

Regarding `O=C1CC2(CCCC2)CC(=O)N1CCCCN1CCN(c2ncccn2)CC1` [Buspirone], in assay [2] (Well no.=2179), the remaining activity at 3.75 µM was determined as 105%. For `S=C(S)O[C@@H]1C[C@@H]2C[C@@H]1[C@H]1CCC[C@@H]21` [D609], the remaining activity at 3.75 µM in assay [2] (Well no.=4133) was 100%. For `CC/C(=C(/CC)c1ccc(O)cc1)c1ccc(O)cc1` [Diethylstilbestrol], in assay [2] (Well no.=1982), the remaining activity at 3.75 µM amounted to 98.4%. Turning to `Cc1cccc2c3c(ccc12)C1=C(C(=O)C3=O)C(C)CO1` (stereo not shown) [Dihydrotanshinone], the remaining activity at 1.25 µM in assay [1] (Well no.=3569) came to 102%. Take `COc1ccc([C@@H]2Sc3ccccc3N(CCN(C)C)C(=O)[C@@H]2OC(C)=O)cc1` [Diltiazem hydrochloride]: the remaining activity at 3.75 µM in assay [2] (Well no.=399) came out at 103%. As to `O=c1[nH]c2ccccc2n1CCN1CCN(c2cccc(C(F)(F)F)c2)CC1` [Flibanserin], the remaining activity at 1.25 µM in assay [1] (Well no.=6855) came to 102%. Consider `Cc1ccc(OC[C@H](O)[C@@H](C)NC(C)C)c2c1CCC2` [ICI 118,551 (hydrochloride)], for which the remaining activity at 1.25 µM in assay [1] (Well no.=7035) is 106%. As to `COc1ccc(Cl)cc1NC(=O)Nc1cc(C)nc2ccccc12` [IGF-1R Inhibitor II], the remaining activity at 3.75 µM in assay [2] (Well no.=2451) was determined as 104%.

On to `O=C(c1ccc(Nc2nccc(-c3cc4ccccc4s3)n2)cc1)N1CCC(N2CCCC2)CC1` [IKK Inhibitor VII], for which, in assay [1] (Well no.=2439), the remaining activity at 1.25 µM is 103%. In the case of `CN(C)CCCN1c2ccccc2CCc2ccccc21` [Imipramine.HCl], the remaining activity at 3.75 µM in assay [2] (Well no.=1688) was determined as 102%. For the compound `CC(C)[N+]1(C)[C@@H]2CC[C@H]1C[C@@H](OC(=O)C(CO)c1ccccc1)C2` (stereo partly shown) [Ipratropium (bromide)], in assay [1] (Well no.=6175), the remaining activity at 1.25 µM amounted to 100%.

Take `CC(C(=O)O)c1cccc(C(=O)c2ccccc2)c1` (stereo not shown) [Ketoprofen]: the remaining activity at 3.75 µM stood at 101% in assay [2] (Well no.=973) and 98.4% in assay [2] (Well no.=1576).

`C[N+](C)(C)[C@@H](Cc1c[nH]c(=S)[nH]1)C(=O)[O-]` [L-Ergothioneine]: in assay [2] (Well no.=3891), the remaining activity at 3.75 µM worked out at 100%. On to `CN1[C@@H](CC(=O)c2ccccc2)CCC[C@H]1C[C@H](O)c1ccccc1` [Lobeline], for which, in assay [2] (Well no.=1663), the remaining activity at 3.75 µM was found to be 103%. Regarding `COc1cc(Nc2ncc3c(n2)-c2ccc(Cl)cc2C(c2c(F)cccc2OC)=NC3)ccc1C(=O)O` [MLN8237 (Alisertib)], in assay [2] (Well no.=4675), the remaining activity at 3.75 µM turned out to be 104%. `CN1C[C@@H](NS(=O)(=O)N(C)C)C[C@@H]2c3cccc4c3c(cn4C)C[C@H]21` [Mesulergine]: the remaining activity at 3.75 µM in assay [2] (Well no.=1692) was determined as 106%. Turning to `CC(C)(O)c1ccccc1CC[C@@H](SCC1(CC(=O)O)CC1)c1cccc(/C=C/c2ccc3ccc(Cl)cc3n2)c1` [Montelukast], the remaining activity at 3.75 µM in assay [2] (Well no.=1615) was 101%. As for `CN1CCN(C2Cc3ccccc3Sc3ccc(Cl)cc32)CC1` (stereo not shown) [Octoclothepin maleate salt], in assay [2] (Well no.=5506), the remaining activity at 3.75 µM amounted to 108%.

For `CN(C)CC/C=C1/c2ccccc2COc2ccc(CC(=O)O)cc21` [Olopatadine], the remaining activity at 3.75 µM in assay [2] (Well no.=1786) stood at 103%. `Cc1nccn1CC1CCc2c(c3ccccc3n2C)C1=O` (stereo not shown) [Ondansetron (hydrochloride dihydrate)]: in assay [2] (Well no.=7521), the remaining activity at 3.75 µM is 105%.

With `Cc1cc(C(C)(C)C)c(O)c(C)c1CC1=NCCN1` [Oxymetazoline.HCl], the remaining activity at 3.75 µM in assay [2] (Well no.=1683) amounted to 105%. With `CCCCCCCCCCCCCCCC(=O)NCCO` [Palmitoylethanolamide], in assay [2] (Well no.=900), the remaining activity at 3.75 µM stood at 106%.

Regarding `O=C(Nc1cccc2c(=O)cc(-c3nnn[nH]3)oc12)c1ccc(OCCCCc2ccccc2)cc1` [Pranlukast (hemihydrate)], in assay [2] (Well no.=6603), the remaining activity at 3.75 µM worked out at 102%.

As to `COC(=O)[C@H]1[C@H]2C[C@H]3c4[nH]c5ccccc5c4CCN3C[C@H]2CC[C@@H]1O` [Rauwolscine (hydrochloride)], in assay [2] (Well no.=8155), the remaining activity at 3.75 µM was determined as 99.9%. With `C1COC(NC(C2CC2)C2CC2)=N1` [Rilmenidine phosphate], the remaining activity at 3.75 µM in assay [2] (Well no.=1695) is 106%. With `CNCC[C@H](Oc1ccc(C(F)(F)F)cc1)c1ccccc1` [S-(+)-Fluoxetine hydrochloride], in assay [2] (Well no.=753), the remaining activity at 3.75 µM came to 99.7%. Turning to `Oc1cc2c(cc1O)C(c1ccccc1)CNCC2` (stereo not shown) [SKF 38393 (hydrochloride)], the remaining activity at 3.75 µM in assay [2] (Well no.=7231) turned out to be 97.8%. With `O=C(CCCN1CCC2(CC1)C(=O)NCN2c1ccccc1)c1ccc(F)cc1` [Spiperone.HCl], the remaining activity at 3.75 µM in assay [2] (Well no.=1648) is 106%. Regarding `Cc1ccc(C(=O)Nc2ccc(S(=O)(=O)O)c3cc(S(=O)(=O)O)cc(S(=O)(=O)O)c23)cc1NC(=O)c1cccc(NC(=O)Nc2cccc(C(=O)Nc3cc(C(=O)Nc4ccc(S(=O)(=O)O)c5cc(S(=O)(=O)O)cc(S(=O)(=O)O)c45)ccc3C)c2)c1` [Suramin hexasodium], the remaining activity at 3.75 µM in assay [2] (Well no.=1469) was found to be 102%. For `Nc1c2c(nc3ccccc13)CCCC2` [Tacrine], the remaining activity at 3.75 µM in assay [2] (Well no.=1675) came to 105%. Consider `CN(C)CCCN1c2ccccc2Sc2ccc(C(F)(F)F)cc21` [Triflupromazine hydrochloride], for which the remaining activity at 3.75 µM in assay [2] (Well no.=1285) turned out to be 105%. In the case of `CCC(COC(=O)c1cc(OC)c(OC)c(OC)c1)(c1ccccc1)N(C)C` (stereo not shown) [Trimebutine (maleate)], the remaining activity at 3.75 µM in assay [2] (Well no.=6655) amounted to 107%. For `Cc1cccc(C)c1NC1=NCCCS1` [Xylazine hydrochloride], the remaining activity at 3.75 µM in assay [2] (Well no.=1388) came to 98.8%.
